Measurements published in PMC7764665, “Food (Matrix) Effects on Bioaccessibility and Intestinal Permeability of Major Olive Antioxidants” (Foods, 2020).
≈ marks a conversion by molar mass, not a printed value. Where “and” joins values, the source holds several entries; their conditions need not be identical. Identical values can stand only once.

Legend:
[1] = Standardized static in vitro simulation of gastrointestinal digestion of OPE (bioaccessibility), alone or co-digested with food; assay type: in vitro ADME; conditions: for bioaccessible amount after gastrointestinal digestion / amount in OPE before gastrointestinal digestion: OPE; for bioaccessible amount after gastrointestinal digestion: after simulated gastrointestinal digestion; for amount in OPE before gastrointestinal digestion: before digestion (start of the printed increase); for effect of standardized food model (SFM) on bioaccessibility: digestion with SFM compared to other applied methods
Method: Total polyphenols (total reductive capacity) of analyzed samples was assessed by Folin–Ciocalteu method that relies on the transfer of electrons in alkaline medium from phenolic (or other reductive) compounds to phosphomolybdic/phosphotungstic acid complexes, which are determined spectroscopically at 765 nm. Experiments were conducted according to the protocol described by Ainsworth and co-workers. Moreover, 20 µL of adequately diluted sample/standard/solvent (blank) were added in triplicate to 96-well plate (Thermo Fisher Scientific 130188, Rochester, NY, USA) and incubated at 37 °C with 50 µL of Folin Ciocalteu reagent (10% (v/v)) for 5 min. The 160 µL of Na2CO3 (700 mM) was added into each well, shaken, and incubated at 37 °C for 30 min. Absorbance was read at 765 nm and results were expressed as gallic acid equivalents (GAE). HTS and TS were identified and quantified by HPLC system (Waters Alliance 2695, Milford, MA, USA) coupled with a 2475 Multi λ detector (FLD) with Xenon lamp, according to slightly modified method of Tsarbopoulos and co-workers. Samples were prepared by filtration through 0.45 μm polyethersulfone (PES) syringe filters (Macherey–Nagel, Düren, Germany). Chromatographic separation was conducted by injecting 20 μL of sample on a reversed phase column (250 × 4.6 mm, 5 μm) (Agilent Zorbax Eclipse Plus C18, Santa Clara, CA, USA). Mobile phases were 0.05 M sodium acetate buffer pH 5 and acetonitrile with the flow rate of 1 mL/min. Elution was conducted over 25 min at 25 °C. Identification was performed with FLD set at the excitation wavelength of 280 nm, and emission wavelength of 316 nm. Polyphenols were identified by comparing the retention times of the eluting peaks with those of the standards. Peaks were quantified by using the Empower2 software (Waters, Milford, MA, USA) and compared to external standard calibration. Standard stock solutions were prepared by dissolving reference compounds in DMSO. In vitro simulation of gastrointestinal digestion and the assessment of bioaccessibility of hydroxytyrosol and tyrosol from OPE was conducted by standardized static in vitro digestion method suitable for food. Three-phase digestion process was applied consisting of short salivary phase, simulation of gastric digestion and simulation of duodenal digestion. Briefly, 200 mg of OPE was used alone or mixed with 600 mg of food matrix (Table S4) in 50 mL Falcon tube. The 875 µL of SSF, 125 µL of salivary α amylase solution, 6.25 µL of CaCl2 (0.3 mol/L), and 243.8 µL of water was added, and the mixture incubated at 37 °C for 2 min with constant shaking. The 2.5 mL of reaction mixture were transferred to another Falcon tube and mixed with 1.875 mL of SGF, 1.25 µL of CaCl2 (0.3 mol/L), and 50 µL of HCl (1 mol/L). The pH of the mixture was adjusted to 3, and total volume was adjusted to 5 mL with water. The content of the Falcon tube was vortexed and incubated for 2 h at 37 °C with constant shaking. Every 15 min pH of the mixture was checked and adjusted to 3 if necessary. At the end of simulation of the gastric digestion step, 5 mL of aliquot were transferred to another 50 mL Falcon tube for the simulation of intestinal digestion. The 2.75 mL of SIF, 1.25 mL of pancreatin solution, 0.625 mL of bile salt (160 mmol/L), 10 µL of CaCl2 (0.3 mol/L), and 37.5 µL of NaOH (1 mol/L) were added. The pH was checked and adjusted to 7. Total volume of reaction mixture was adjusted to […], mixtures were vortexed and incubated for 2 h at 37 °C with constant shaking. Every 15 min, pH of the mixture was checked and adjusted to 7 if necessary. After digestion, simulation samples were cooled at −20 °C for 10 min and centrifuged (Heraeus Biofuge Stratos, Hanau, Germany) for 20 min at 4 °C and 4100 rpm. For HPLC analysis of hydroxytyrosol and tyrosol, obtained supernatants were additionally filtered through 0.45 µm polyether sulfone (PES) syringe filters. […]

[2] = as above; assay type: in vitro ADME; conditions: fed vs fasted state biorelevant media (FeSSGF/FeSSIF vs FaSSGF/FaSSIF)
[3] = source not given; cited from earlier work
[4] = set-up: method as in PMID 18209271; conditions: after virgin olive oil ingestion; cited from earlier work
[5] = set-up: method as in PMID 11435519; conditions: rat model, lipid-rich matrix (olive oil); cited from earlier work
[6] = tested on: Caco-2 cell monolayer; test: Transepithelial transport of HTS and TS in Caco-2 monolayers; conditions: 2 h, compared to MIX; for transepithelial permeability in presence of glucose: 40 µg/mL HTS and TS with 10 mM glucose; for transepithelial permeability in presence of cellulose: 40 µg/mL HTS and TS with 1% cellulose
[7] = set-up: method as in PMID 29663812; conditions: co-digestion with the test meal; cited from earlier work
[8] = tested on: Caco-2 Cells; set-up: method as in PMID 29663812; conditions: co-digestion with the test meal; cited from earlier work
[9] = OPE co-digested with apple (peeled, no skin), relative to OPE without food
[10] = OPE co-digested with banana, relative to OPE without food
[11] = OPE co-digested with breakfast cereals, relative to OPE without food
[12] = OPE co-digested with canned tuna, relative to OPE without food
[13] = OPE co-digested with cellulose, relative to OPE without food
[14] = OPE co-digested with corn starch, relative to OPE without food
[15] = OPE co-digested with fresh low fat cheese, relative to OPE without food
[16] = OPE co-digested with honey, relative to OPE without food
[17] = OPE co-digested with milk formula, relative to OPE without food
[18] = OPE co-digested with milk, relative to OPE without food
[19] = OPE co-digested with potato (boiled), relative to OPE without food
[20] = OPE co-digested with silverbeat (blanched), relative to OPE without food
[21] = OPE co-digested with souce bolognese, relative to OPE without food
[22] = OPE co-digested with sour cream, relative to OPE without food
[23] = OPE co-digested with soy flakes, relative to OPE without food
[24] = OPE co-digested with whole-grain bread, relative to OPE without food
[25] = OPE co-digested with yoghurt, relative to OPE without food
[26] = OPE digested without food (reference)

| Structure (SMILES) | relative bioaccessibility [1, 9] | relative bioaccessibility [1, 10] | relative bioaccessibility [1, 11] | relative bioaccessibility [1, 12] | relative bioaccessibility [1, 13] | relative bioaccessibility [1, 14] | relative bioaccessibility [1, 15] | relative bioaccessibility [1, 16] | relative bioaccessibility [1, 17] | relative bioaccessibility [1, 18] | relative bioaccessibility [1, 19] | relative bioaccessibility [1, 20] | relative bioaccessibility [1, 21] | relative bioaccessibility [1, 22] | relative bioaccessibility [1, 23] | relative bioaccessibility [1, 24] | relative bioaccessibility [1, 25] | relative bioaccessibility [1, 26] | bioaccessible amount after gastrointestinal digestion [1] | amount in OPE before gastrointestinal digestion [1] | further results |
| --- | --- | --- | --- | --- | --- | --- | --- | --- | --- | --- | --- | --- | --- | --- | --- | --- | --- | --- | --- | --- | --- |
| OCCc1ccc(O)cc1 [TS, tyrosol] | 67.2 ± 0.55% | 104.5 ± 2.15% | 79.3 ± 8.70% | 98.5 ± 1.12% | 87.4% | 88.7% and 88.1 ± 1.66% | 106.4 ± 4.35% | 97.8% and 97.8 ± 0.91% | 81.3 ± 3.95% | 94.6 ± 1.63% | 92.4 ± 1.64% | 89.9 ± 4.59% | 92.4 ± 0.46% | 97.4 ± 3.34% | 93.0 ± 1.93% | 73.0 ± 0.66% | 73.8 ± 1.42% | 99.9 ± 6.75% | 27.4 mg/100g | 20.7 mg/100g | effect of standardized food model (SFM) on bioaccessibility [1]: no effect; influence of food-induced changes of pH and digestion fluid composition on bioaccessibility [2]: do not influence; water solubility [3]: 25.3 mg/mL (≈ 183 mM); time of peak concentration in plasma [4]: around 1 h; time of peak in urine [4]: 0 to 2 h; greater absorption from olive oil compared to aqueous solution [5]: 25%; transepithelial permeability in presence of glucose [6]: significantly improved; transepithelial permeability in presence of cellulose [6]: did not result in increased permeability |
| OCCc1ccc(O)c(O)c1 [HTS, 3-hydroxytyrosol] | 54.8 ± 0.72% | 65.8 ± 5.05% | 76.0 ± 2.30% | 98.3 ± 4.92% | 108.2 ± 2.24% | 94.9% and 94.9 ± 2.19% | 95.5 ± 8.16% | 89.5% and 89.5 ± 7.26% | 95.9 ± 0.96% | 98.6 ± 3.11% | 92.8 ± 5.88% | 69.3 ± 0.79% | 84.2 ± 4.61% | 102.3 ± 2.18% | 69.8 ± 1.06% | 57.4 ± 0.97% | 92.5 ± 0.82% | 100.0 ± 2.86% | 109.3 mg/100g | 78.4 mg/100g | relative bioaccessibility ([1]; OPE co-digested with pectin, relative to OPE without food): 93.2% and 93.2 ± 3.04%; effect of standardized food model (SFM) on bioaccessibility [1]: no effect; influence of food-induced changes of pH and digestion fluid composition on bioaccessibility [2]: do not influence; water solubility [3]: 17.4 mg/mL (≈ 113 mM); time of peak concentration in plasma [4]: around 1 h; time of peak in urine [4]: 0 to 2 h; greater absorption from olive oil compared to aqueous solution [5]: 25%; change of bioaccessibility by presence of foods [7]: −20%; change of intestinal permeability by presence of foods [8]: −10%; transepithelial permeability in presence of glucose [6]: significantly improved; transepithelial permeability in presence of cellulose [6]: did not result in increased permeability; transepithelial permeability in presence of inulin ([6]; 40 µg/mL HTS and TS with 1% inulin): significant reduction |
